Assay results from ChEMBL document CHEMBL4043203, “Synthesis and biological evaluations of new nitric oxide-anti-inflammatory drug hybrids” (Bioorg Med Chem Lett, 2017).

What was measured:
[1] = test system: Rattus norvegicus; experiment: Antiinflammatory activity in Wistar albino rat assessed as inhibition of carrageenan-induced left hind paw edema at 50 mg/kg, po pretreated for 1 hr followed by carrageenan addition measured after 2 hrs relative to control; assay type: functional; details: Wister
[2] = test system: Rattus norvegicus; experiment: Antiinflammatory activity in Wistar albino rat assessed as serum nitric oxide level at 50 mg/kg, po treated for 3 successive days measured at 2 hrs post last dose by Griess reagent based colorimetric assay (reference value: 147.90 +/- 31.76 micromol/L); assay type: functional, Wister
[3] = molecular target: T1, Prostaglandin G/H synthase 1 (Ovis aries, UniProt P05979); experiment: Inhibition of ovine COX1 using arachidonic acid as substrate by colorimetric enzyme immune assay
T1 sequence (P05979 whole entry): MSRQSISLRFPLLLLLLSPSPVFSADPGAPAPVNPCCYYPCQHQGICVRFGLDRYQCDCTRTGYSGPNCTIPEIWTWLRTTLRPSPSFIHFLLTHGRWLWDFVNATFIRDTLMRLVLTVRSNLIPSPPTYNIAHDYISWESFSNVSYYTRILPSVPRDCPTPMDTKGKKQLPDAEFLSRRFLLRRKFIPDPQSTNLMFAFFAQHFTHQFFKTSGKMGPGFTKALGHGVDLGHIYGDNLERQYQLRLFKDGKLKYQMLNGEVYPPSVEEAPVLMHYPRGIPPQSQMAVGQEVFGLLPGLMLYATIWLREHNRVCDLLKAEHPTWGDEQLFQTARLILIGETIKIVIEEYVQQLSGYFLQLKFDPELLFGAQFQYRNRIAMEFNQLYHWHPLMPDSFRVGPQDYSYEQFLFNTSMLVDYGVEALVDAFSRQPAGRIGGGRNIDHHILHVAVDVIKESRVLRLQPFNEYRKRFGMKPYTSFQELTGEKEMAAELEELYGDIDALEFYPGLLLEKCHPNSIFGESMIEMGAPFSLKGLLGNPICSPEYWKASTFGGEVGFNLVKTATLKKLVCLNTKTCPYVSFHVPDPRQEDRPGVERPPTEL

[4] = molecular target: T2, Prostaglandin G/H synthase 2 (Homo sapiens, UniProt P35354); experiment: Inhibition of recombinant human COX2 using arachidonic acid as substrate by colorimetric enzyme immune assay
T2 sequence (P35354 whole entry): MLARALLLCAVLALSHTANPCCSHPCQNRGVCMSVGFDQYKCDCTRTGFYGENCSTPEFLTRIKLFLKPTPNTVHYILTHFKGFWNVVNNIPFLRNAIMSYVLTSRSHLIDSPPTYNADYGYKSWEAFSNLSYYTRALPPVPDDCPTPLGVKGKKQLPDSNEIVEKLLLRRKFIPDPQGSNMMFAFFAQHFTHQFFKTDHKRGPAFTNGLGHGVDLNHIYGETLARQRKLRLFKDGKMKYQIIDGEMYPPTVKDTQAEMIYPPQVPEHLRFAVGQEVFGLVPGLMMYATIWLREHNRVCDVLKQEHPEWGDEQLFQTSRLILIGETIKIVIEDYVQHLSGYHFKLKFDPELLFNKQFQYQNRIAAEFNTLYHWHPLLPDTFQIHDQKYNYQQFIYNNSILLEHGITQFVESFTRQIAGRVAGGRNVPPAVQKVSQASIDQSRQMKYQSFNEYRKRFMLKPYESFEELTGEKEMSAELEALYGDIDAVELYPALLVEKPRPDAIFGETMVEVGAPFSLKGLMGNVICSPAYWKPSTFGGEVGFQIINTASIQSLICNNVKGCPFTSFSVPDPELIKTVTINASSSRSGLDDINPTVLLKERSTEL

[5] = Selectivity index, ratio of IC50 for ovine COX1 to IC50 for recombinant human COX2
[6] = test system: Rattus norvegicus; experiment: Ulcerogenic activity in Wistar albino rat assessed as ulcer index at 50 mg/kg, po treated for 3 successive days measured at 2 hrs post last dose; assay type: toxicity, organism-based, Wister; details: in vivo
[7] = test system: Rattus norvegicus; experiment: Ulcerogenic activity in Wistar albino rat assessed as relative ulcerogenicity at 50 mg/kg, po treated for 3 successive days measured at 2 hrs post last dose relative to celecoxib; assay type: toxicity, organism-based, Wister; details: in vivo
[8] = test system: Rattus norvegicus; experiment: Antiinflammatory activity in po dosed Wistar albino rat assessed as inhibition of carrageenan-induced left hind paw edema pretreated for 1 hr followed by carrageenan addition measured after 2 hrs; assay type: functional; details: Wister
[9] = species on record: Rattus norvegicus; experiment: Ulcerogenic activity in Wistar albino rat assessed as minimum vasocapillary dilation in stomach after 48 hrs by hematoxylin and eosin staining based microscopic analysis; assay type: toxicity, Wister; details: in vivo
[10] = species on record: Rattus norvegicus; experiment: Ulcerogenic activity in Wistar albino rat assessed as lesion in stomach after 48 hrs by hematoxylin and eosin staining based microscopic analysis; assay type: toxicity, Wister; details: in vivo
[11] = species on record: Rattus norvegicus; experiment: Ulcerogenic activity in Wistar albino rat assessed as loss of mucous in stomach after 48 hrs by hematoxylin and eosin staining based microscopic analysis; assay type: toxicity, Wister; details: in vivo
[12] = species on record: Rattus norvegicus; experiment: Ulcerogenic activity in Wistar albino rat assessed as abdominal perforation in stomach after 48 hrs by hematoxylin and eosin staining based microscopic analysis; assay type: toxicity, Wister; details: in vivo

| IC50 [3] [µM] | IC50 [4] [µM] | Ratio IC50 [5] | Structure (SMILES) | inhibition in vivo at 50 mg/kg [1] [%] | Activity [2] [µmol/L] | UI [6] | fold change (FC) [7] | ED50 [8] [mg/kg] | Activity [9] | Activity [10] | Activity [11] | Activity [12] |
| --- | --- | --- | --- | --- | --- | --- | --- | --- | --- | --- | --- | --- |
| 6.8 | 1.55 | 4.38 | Cc1c(-c2c(N=O)nc3ncccn23)cnn1-c1ccccc1 | 62 | 386.3 | 0.33 | 1 | 38 | Non-Toxic | Non-Toxic |  |  |
| 5.6 | 1.22 | 4.59 | Cc1c(C2=C(N=O)Oc3cccnc3N2)cnn1-c1ccccc1 | 64 | 415.3 | 0.33 | 1 | 35 |  |  |  |  |
| 9.22 | 1.61 | 5.77 | Cc1c(C2=C(N=O)Nc3ccccc3N2)cnn1-c1ccccc1 | 57 | 370.1 | 2.33 | 7.06 | 40 |  |  |  |  |
| 9.2 | 6.6 | 1.39 | Cc1c(-c2nc3ccccc3nc2N=O)cnn1-c1ccccc1 | 59 | 140.1 | 3 | 9.09 | 40 |  |  |  |  |
| 9.2 | 1.75 | 5.25 | Cc1c(-c2nc3ccccn3c2N=O)cnn1-c1ccccc1 | 65 | 402.6 | 2 | 6.06 | 35 |  |  |  |  |

The remaining lines, values behind:

| Structure (SMILES) | IC50 [3] [µM] | IC50 [4] [µM] | Ratio IC50 [5] | inhibition in vivo at 50 mg/kg [1] [%] | Activity [2] [µmol/L] | UI [6] | fold change (FC) [7] | ED50 [8] [mg/kg] | Activity [9] | Activity [10] | Activity [11] | Activity [12] |
| --- | --- | --- | --- | --- | --- | --- | --- | --- | --- | --- | --- | --- |
| Cc1c(C2=C(N=O)Oc3ccccc3N2)cnn1-c1ccccc1 | 8.6 | 4.2 | 2.04 | 56 | 335.3 | 2 | 6.06 | 45 |  |  |  |  |
| Cc1c(-c2nnc(-c3cnn(-c4ccccc4)c3C)c3nocc23)cnn1-c1ccccc1 | 10.1 | 6.88 | 1.46 |  | 318.8 | 1.33 | 4.03 |  | Non-Toxic | Non-Toxic |  |  |
| Cc1c(-c2nnc(-c3ccccc3)c3conc23)cnn1-c1ccccc1 | 5.88 | 0.78 | 7.84 | 50 | 314.4 | 1.76 | 5.06 | 50 |  |  |  |  |
| Cc1c(C2=C(N=O)Sc3ccccc3N2)cnn1-c1ccccc1 | 7.72 | 1.83 | 4.21 | 56 | 348.3 | 0.33 | 1 | 45 |  |  |  |  |
| Cc1ccc(-c2cc(C(F)(F)F)nn2-c2ccc(S(N)(=O)=O)cc2)cc1 [CELECOXIB] |  |  |  | 65 |  | 0.33 |  | 35 | Non-Toxic | Non-Toxic |  |  |
| COc1ccc2c(c1)c(CC(=O)O)c(C)n2C(=O)c1ccc(Cl)cc1 [INDOMETHACIN] |  |  |  |  |  |  |  |  |  |  | Toxic | Toxic |
| Cc1c(C(=O)c2conc2C(=O)c2cnn(-c3ccccc3)c2C)cnn1-c1ccccc1 | 9.11 | 4.5 | 2.02 |  | 286.2 | 0.33 | 1 |  |  |  |  |  |
| Cc1ccc(-c2nnc(-c3cnn(-c4ccccc4)c3C)c3nocc23)cc1 | 10.2 | 1.28 | 7.94 | 54 | 273.1 | 0.33 | 1 | 46 |  |  |  |  |
| Cc1c(C(=O)/C(Cl)=N/O)cnn1-c1ccccc1 | 9.8 | 2.33 | 4.2 | 50 | 315.5 | 5 | 15.15 | 50 | Non-Toxic |  | Non-Toxic |  |
| Cc1c(C(=O)c2nocc2C(=O)c2ccccc2)cnn1-c1ccccc1 | 11.1 | 1.49 | 7.44 | 41 | 372 | 0.33 | 1 | 61 |  |  |  |  |
| Cc1ccc(C(=O)c2conc2C(=O)c2cnn(-c3ccccc3)c2C)cc1 | 4.52 | 1.12 | 4.03 | 45 | 346.5 | 1.33 | 4.03 | 56 |  |  |  |  |
